Legend:
[1] = test system: subcutaneous PC-3 xenografts; experiment: Biodistribution, perfusion tracer, subcutaneous PC-3 xenograft model; format: in vivo; conditions: 5 min p.i., mean ± SD
Description: (§1) For the subcutaneous model, 5-week old female SCID mice were inoculated in the flanks with 5 × 10^6 PC-3 cells (American Type Culture Collection (ATCC), VA) in Matrigel®. The tumor size was monitored by caliper. For the generation of the orthotopic model, the PC-3-Luc cells were selected by 0.5 µg/mL puromycin twice before inoculation. The male 6-weeks SCID mice were anesthetized, the muscles of the abdomen area were cut after retracting the skin, and the prostate gland exposed. 50 μL of PC-3-Luc cell suspension at 0.5 × 10^6/mL in Matrigel® was injected into a dorsal prostatic lobe. The wound was closed in two layers and the skin was clipped. Animals were given analgesic drugs for 3 days and the tumors were monitored by an IVIS optical imaging system.
(§2) The mice were injected, monitored and dissected in the lab with the temperature of 23 °C and 17% relative humidity. All animals were awake until sacrifice. The body weight, tumor volume and tumor luminescence of the mice were recorded every three days. At four-to-seven weeks post-xenograft implantation, the mice were divided into three groups by tumor volume: <300, 300–700 and >700 mm^3 in both animal models. […] Each mouse (average weight: 20 g for female mice and 25 g for male mice) was treated with pimonidazole solution (80 mg/kg in PBS) via intraperitoneal injection. […] After an additional 1 h, the mice were injected intravenously with a PBS solution containing 10 µCi (370 kBq) of [^99mTc]NaTcO4 and 15 mg/kg Hoechst 33342. The animals were sacrificed 5 minutes later, and their tissues collected. The excised tissues were weighed, the radioactivity for each tissue was measured by γ-counter and the percentage injected dose per gram (%ID/g) was calculated for each tissue. […]
The normal PC-3 cells and PC-3-Luc were cultured in our laboratory, as per ATCC protocols, in Ham’s F-12K medium
containing 10% FBS, 2.5 mM L-glutamine, 15 mM HEPES and 0.5 mM sodium pyruvate. Cells were incubated at 37 °C
(§3) All animal experiments were performed in accordance with the NIH animal use guideline and protocol approved by the […]

[2] = test system: orthotopic PC-3 xenografts; experiment: Biodistribution, perfusion tracer, orthotopic PC-3 xenograft model; format: in vivo; conditions: for blood uptake / bone uptake / brain uptake / excretion (urine and fecal material) / heart uptake / kidney uptake / large intestine uptake / liver uptake / lung uptake / muscle uptake / pancreas uptake / small intestine uptake / spleen uptake / stomach uptake / tumor uptake (perfusion): orthotopic model, 10 µCi i.v., 5 min p.i., mean ± SD
Description: as §1, §2
Establishment of Stably Transfected PC-3-Luc Cells
To generate the PC-3-Luc cells, we utilized pre-made lentivirus particles encoding luciferase and GFP (EF1a-Luciferase (firefly)-2A-GFP (Puro), AMSBIO) for transfection. Briefly, normal PC-3 cells were seeded in a 24-well plate using 0.5 mL of medium containing 0.5 × 10^5 cells/mL and incubated overnight. The medium was removed and replaced with 0.5 mL of fresh medium pre-mixed with 2.5 ȝL TransduxTM. To each well was added 2 ȝL of the lentivirus particle solution and swirled to mix. The plate was returned to the incubator and cultured for 3 days. Once the cells grew to confluence, they were harvested and transferred to larger plates (from 6-well plates to 60 mm dishes). 1.5 mL of suspended cells in PBS at a concentration of 5 × 10^6/mL was sorted by the FACS method to give the GFP positive (PC-3-Luc) cells that were returned to culture for in vitro and in vivo studies.
The normal PC-3 cells and PC-3-Luc were cultured in our laboratory, as per ATCC protocols, in Ham’s F-12K medium containing 10% FBS, 2.5 mM L-glutamine, 15 mM HEPES and 0.5 mM sodium pyruvate. Cells were incubated at 37 °C […]
as §3

[3] = tumor volume 300-700 mm^3, 10 µCi i.v.
[4] = tumor volume <300 mm^3, 10 µCi i.v.
[5] = tumor volume >700 mm^3, 10 µCi i.v.

## [Na+].[O]=[Tc](=[O])(=[O])[O-] [[^99mTc]TcO4^−, sodium pertechnetate]
[1]; [3]
  blood uptake: 0.88 ± 0.34 %ID/g
  bone uptake: 0.16 ± 0.06 %ID/g
  brain uptake: 0.03 ± 0.02 %ID/g
  excretion (urine and fecal material): 85.78 ± 9.65 %ID
  heart uptake: 0.22 ± 0.11 %ID/g
  kidney uptake: 0.53 ± 0.19 %ID/g
  large intestine uptake: 0.43 ± 0.47 %ID/g
  liver uptake: 0.41 ± 0.19 %ID/g
  lung uptake: 0.49 ± 0.21 %ID/g
  muscle uptake: 0.11 ± 0.04 %ID/g
  pancreas uptake: 3.30 ± 2.30 %ID/g
  small intestine uptake: 0.61 ± 0.43 %ID/g
  spleen uptake: 0.87 ± 0.74 %ID/g
  stomach uptake: 2.41 ± 1.25 %ID/g
  tumor uptake (perfusion): 0.68 ± 0.49 %ID/g
[1]; [4]
  blood uptake: 1.01 ± 0.06 %ID/g
  bone uptake: 0.34 ± 0.27 %ID/g
  brain uptake: 0.06 ± 0.04 %ID/g
  excretion (urine and fecal material): 83.64 ± 9.63 %ID
  heart uptake: 0.40 ± 0.24 %ID/g
  kidney uptake: 0.66 ± 0.33 %ID/g
  large intestine uptake: 0.44 ± 0.35 %ID/g
  liver uptake: 0.67 ± 0.43 %ID/g
  lung uptake: 0.74 ± 0.27 %ID/g
  muscle uptake: 0.19 ± 0.11 %ID/g
  pancreas uptake: 2.26 ± 1.95 %ID/g
  small intestine uptake: 0.52 ± 0.38 %ID/g
  spleen uptake: 1.35 ± 1.21 %ID/g
  stomach uptake: 2.26 ± 1.06 %ID/g
  tumor uptake (perfusion): 0.51 ± 0.31 %ID/g
[1]; [5]
  blood uptake: 2.61 ± 1.54 %ID/g
  bone uptake: 0.34 ± 0.31 %ID/g
  brain uptake: 0.06 ± 0.05 %ID/g
  excretion (urine and fecal material): 82.76 ± 12.78 %ID
  heart uptake: 0.43 ± 0.38 %ID/g
  kidney uptake: 1.11 ± 0.92 %ID/g
  large intestine uptake: 0.53 ± 0.53 %ID/g
  liver uptake: 0.85 ± 0.77 %ID/g
  lung uptake: 1.24 ± 1.00 %ID/g
  muscle uptake: 0.21 ± 0.20 %ID/g
  pancreas uptake: 6.22 ± 6.53 %ID/g
  small intestine uptake: 0.53 ± 0.43 %ID/g
  spleen uptake: 0.43 ± 0.51 %ID/g
  stomach uptake: 3.03 ± 2.52 %ID/g
  tumor uptake (perfusion): 0.86 ± 0.37 %ID/g
[1]; tumor volume >700 mm^3, 10 µCi i.v., listed as [99mTc]TcO4-
  tumor uptake (perfusion): 0.86 ± 0.35 %ID/g
[2]; Table S1
  stomach uptake, orthotopic versus subcutaneous model: approximately 8 fold
[2]; across tumor volume groups
  tumor perfusion, orthotopic versus subcutaneous model: 3.7–4.3 fold
[2]; tumor volume 300-700 mm^3
  blood uptake: 3.51 ± 1.28 %ID/g
  bone uptake: 1.27 ± 0.68 %ID/g
  brain uptake: 0.18 ± 0.18 %ID/g
  excretion (urine and fecal material): 37.55 ± 14.08 %ID
  heart uptake: 1.20 ± 0.63 %ID/g
  kidney uptake: 2.25 ± 2.25 %ID/g
  large intestine uptake: 2.24 ± 0.57 %ID/g
  liver uptake: 2.92 ± 0.95 %ID/g
  lung uptake: 2.78 ± 1.27 %ID/g
  muscle uptake: 0.59 ± 0.18 %ID/g
  pancreas uptake: 5.17 ± 5.32 %ID/g
  small intestine uptake: 1.36 ± 0.45 %ID/g
  spleen uptake: 1.70 ± 1.20 %ID/g
  stomach uptake: 19.15 ± 6.40 %ID/g
  tumor uptake (perfusion): 2.94 ± 0.76 %ID/g
[2]; tumor volume <300 mm^3
  blood uptake: 3.13 ± 1.02 %ID/g
  bone uptake: 1.10 ± 0.73 %ID/g
  brain uptake: 0.14 ± 0.04 %ID/g
  excretion (urine and fecal material): 39.51 ± 22.40 %ID
  heart uptake: 1.29 ± 0.61 %ID/g
  kidney uptake: 1.85 ± 0.91 %ID/g
  large intestine uptake: 1.52 ± 0.36 %ID/g
  liver uptake: 2.51 ± 0.73 %ID/g
  lung uptake: 2.86 ± 1.06 %ID/g
  muscle uptake: 0.47 ± 0.20 %ID/g
  pancreas uptake: 4.94 ± 4.84 %ID/g
  small intestine uptake: 1.31 ± 0.31 %ID/g
  spleen uptake: 2.84 ± 1.87 %ID/g
  stomach uptake: 16.33 ± 4.08 %ID/g
  tumor uptake (perfusion): 2.23 ± 1.09 %ID/g
[2]; tumor volume >700 mm^3
  blood uptake: 3.96 ± 0.90 %ID/g
  bone uptake: 0.85 ± 0.49 %ID/g
  brain uptake: 0.16 ± 0.07 %ID/g
  excretion (urine and fecal material): 46.43 ± 13.26 %ID
  heart uptake: 1.79 ± 0.87 %ID/g
  kidney uptake: 1.45 ± 0.64 %ID/g
  large intestine uptake: 2.14 ± 0.55 %ID/g
  liver uptake: 3.02 ± 0.77 %ID/g
  lung uptake: 3.34 ± 0.84 %ID/g
  muscle uptake: 0.63 ± 0.24 %ID/g
  pancreas uptake: 4.03 ± 3.24 %ID/g
  small intestine uptake: 1.32 ± 0.78 %ID/g
  spleen uptake: 1.80 ± 1.37 %ID/g
  stomach uptake: 15.44 ± 3.98 %ID/g
  tumor uptake (perfusion): 3.19 ± 0.66 %ID/g
[2]; tumor volume 300–700 mm^3, p = 0.0001
  average tumor uptake of perfusion tracer, orthotopic versus subcutaneous model: 4.3 fold
[2]; tumor volume <300 mm^3, p = 0.0008
  average tumor uptake of perfusion tracer, orthotopic versus subcutaneous model: 4.1 fold
[2]; tumor volume >700 mm^3, p = 0.0001
  average tumor uptake of perfusion tracer, orthotopic versus subcutaneous model: 3.7 fold
